This passage reports IC50 results from patent publication US9624243B2, “Heterocyclic compounds and methods of their use” (Novartis AG, priority 2012, dated 2017).

In this assay the target is AT2 receptor (Homo sapiens (Human), UniProt P50052). The assay is described as follows: AT2 Receptor Binding. To be noted: HEK293 AT2 receptor transient cell membranes, [125I]-CGP42112A. Here is the method: 1. Trypsin-EDTA (for Preparation of 100 mL)
Chain of AT2 receptor (P50052 whole entry, species assumed): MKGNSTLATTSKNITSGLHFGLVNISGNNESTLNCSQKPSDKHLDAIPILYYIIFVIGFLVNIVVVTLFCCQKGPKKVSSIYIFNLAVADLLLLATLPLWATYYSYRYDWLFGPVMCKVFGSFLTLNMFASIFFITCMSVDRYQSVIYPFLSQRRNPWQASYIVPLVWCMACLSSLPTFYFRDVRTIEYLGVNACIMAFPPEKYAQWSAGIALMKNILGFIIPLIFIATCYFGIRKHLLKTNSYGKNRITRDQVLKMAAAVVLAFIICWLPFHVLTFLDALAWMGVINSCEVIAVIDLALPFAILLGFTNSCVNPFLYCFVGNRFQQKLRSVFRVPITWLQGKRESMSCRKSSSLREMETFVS
• Dissolve trypsin in 2% EDTA and PBS completely; sterilize the solution by passing through a […] membrane filter; store at 4° C.
2. DMEM Medium (for Preparation of 1 L) • The powder was dissolved into 950 mL of distilled water with gentle stirring until the solution becomes clear. • Add. NaHCO3 1.176 g for DMEM medium. • Adjust pH of medium to 0.2˜0.3 below final working pH using 1 M NaOH or 1 M • HCl. Add slowly with stirring. • Dilute to 1 liter with ddH2O. • Sterilize the medium immediately by filtration. • Store at 4° C.
3. TE Buffer • 20 mM Tris-HCl, pH 7.4, • 5 mM EDTA
4. Binding Assay Buffer • 50 mM Hepes, pH 7.4 • 5 mM MgCl2 • 1 mM CaCl2 • 0.2% BSA
5. Wash Buffer • 50 mM Hepes, pH 7.4 Procedures for HEK293AT2 Receptor Transient Cell Transfection • Cells were plated into 150 mm dish at 50% density for transient transfection. Cells were ready for transfection after overnight incubation (the confluence reaches around 80%). • 75 μL Lipofectamine™2000 diluted in 6.25 mL OptiMEM I Reduced Serum Medium, was mixed gently, and incubated at room temperature for 5 minutes. 50 μg expression plasmid DNA diluted in 6.25 mL OptiMEM I Reduced Serum Medium without serum was mixed gently. • After the 5 minute incubation, the diluted DNA was combined with the diluted Lipofectamine™2000 (total volume is 12.5 mL). The mixture was mixed gently and incubated for 30 minutes at room temperature to allow the DNA-Lipofectamine™2000 complexes to form. • The 12.5 mL DNA-Lipofectamine™2000 complexes were added into the 150 mm dish and mixed gently by rocking the dish back and forth. • The cells were incubated at 37° C. with 5% CO2 for 48 hours. Cells were collected and stored frozen at −80° C. Procedures for HEK293AT2 Receptor Cell Membrane Preparation • Frozen HEK293AT2 receptor (transient transfected) cells were homogenized in ice cold TE buffer for 10s. • The homogenate was centrifuged at 25,000 g for 30 minutes. • The pellet was resuspended in ice cold tissue buffer. • Protein concentrations were determined using Bradford assay method with BSA as standard. • The membrane protein was frozen under −80° C. Compound Preparation
Solutions of all compounds were prepared bymicroplate liquid handling equipment such as Janus or Precision 2000. Compounds, dissolved in DMSO were stored in a Freezer. Compounds were prepared from 30 mM in 100% DMSO.
Step 1: Dose Plate Preparation (96 Well Plate)
• Add the 3 μL [30 mM] compound stock to column 1 on the plate. • Add 15 μL of 100% DMSO to column 1. • Add 10.81 μL of 100% DMSO to column 2-12. • Transfer 5 μL from column 1 into column 2 (half log dilution). • Transfer 5 μL from column 2 into column 3 (half log dilution). • Transfer 5 μL from column 3 into column 4 (half log dilution). • Transfer 5 μL from column 4 into column 5 (half log dilution). • Transfer 5 μL from column 5 into column 6 (half log dilution). • Transfer 5 μL from column 6 into column 7 (half log dilution). • Transfer 5 μL from column 7 into column 8 (half log dilution). • Transfer 5 μL from column 8 into column 9 (half log dilution). • Transfer 5 μL from column 9 into column 10 (half log dilution) • Transfer 5 μL from column 10 into column 11 (half log dilution) • Transfer 5 μL from column 11 into column 12 (half log dilution).
All the compounds were diluted using Precision 2000 microplate liquid handling equipment. The top concentration of compound was 5 mM with 100% DMSO.
Step 2: Working Plate Preparation (96 Well Plate)
• Compounds were diluted 50-fold with buffer. • 49 μL buffer was added to the well of 96 well plate. • 1 μL compound solution from dose plate was transferred to the corresponding well of working plate. • The top concentration of compound was 100 μM with 2% DMSO. Step 3: Assay Plate Preparation (96 Well Plate)
15 μL of compound solution was transferred from each well of working plate to the well of assay plate by Janus.
For orientation: IC50 means the concentration needed to halve the response being measured. Consider `O=C(O)C1Cc2c(OCc3ccccc3)cccc2N1C(=O)C(c1ccccc1)c1ccccc1` (stereo not drawn) [Compound 15, 4-(benzyloxy)-1-(2,2-diphenylacetyl)indoline-2-carboxlic acid], for which the IC50 stood at 54.5 nM. As to `O=C(O)[C@@H]1C[C@H](N2CCN(c3ccccc3)CC2)CN1C(=O)C(c1ccccc1)c1ccccc1` [Compound 23, (2S,4S)-1-(2,2-diphenylacetyl)-4-(4-phenylpiperazine)pyrrolidine-2-carboxylic acid], the IC50 worked out at 290 nM.

As to `O=C(O)[C@@H]1C[C@H](Oc2ccccc2Oc2ccccc2)CN1C(=O)C(c1ccccc1)c1ccccc1` [Compound 35, (2S,4S)-1-(2,2-diphenylacetyl)-4-(2-phenoxyphenoxy)-pyrrolidine-2-carboxylic acid], the IC50 was 540 nM. In turn, `O=C(O)[C@@H]1C[C@H](OCC#Cc2ccccc2)CN1C(=O)C(c1ccccc1)c1ccccc1` [Compound 36, (2S,4S)-1-(2,2-diphenylacetyl)-4-((3-phenylprop-2-yn-1-yl)-oxy)pyrrolidine-2-carboxylic acid] registered an IC50 of 1660 nM. This IC50 lies about 3.1-fold higher than the previous one. For the molecule `O=C(O)[C@@H]1C[C@H](NCCc2ccccc2)CN1C(=O)C(c1ccccc1)c1ccccc1` [Compound 46, (2S,4S)-1-(2,2-diphenylacetyl)-4-(phenethylamino)-pyrrolidine-2-carboxylic acid], the IC50 is 2260 nM.

As to `O=C(O)[C@@H]1C[C@H](N2CCC[C@@H](c3ccccc3)C2)CN1C(=O)C(c1ccccc1)c1ccccc1` [Compound 48, (2S,4S)-1-(2,2-diphenylacetyl)-4-((S)-3-phenylpiperidine-1-yl)pyrrolidine-2-carboxylic acid], the IC50 is 89.4 nM. Turning to `O=C(O)[C@@H]1C[C@H](N2CCC[C@H](c3ccccc3)C2)CN1C(=O)C(c1ccccc1)c1ccccc1` [Compound 49, (2S,4S)-1-(2,2-diphenylacetyl)-4-((R)-3-phenylpiperidin-1-yl)pyrrolidine-2-carboxylic acid], the 50% inhibitory concentration (IC50) was determined as 58.8 nM.

Take `CN(C)S(=O)(=O)NC(=O)[C@@H]1C[C@H](OCCCc2ccccc2)CN1C(=O)C(c1ccccc1)c1ccccc1` [Compound 50]: the IC50 was determined as 67.3 nM.

In the case of `O=C(O)[C@@H]1C[C@H](N2CCCC(Cc3ccccc3)C2)CN1C(=O)C(c1ccccc1)c1ccccc1` (stereo partly drawn) [Compound 53, (2S,4S)-4-(3-benzylpiperidin-1-yl)-1-(2,2-diphenylacetyl)-pyrrolidine-2-carboxylic acid], the IC50 was found to be 43.9 nM. Under `O=C(O)[C@@H]1C[C@H](COCc2ccccc2)CN1C(=O)C(c1ccccc1)c1ccccc1` [Compound 54] stands 155 nM; under `O=C(O)[C@@H]1C[C@H](CCOCc2ccccc2)CN1C(=O)C(c1ccccc1)c1ccccc1` [Compound 55, (2S,4R)-4-(2-(benzyloxy)ethyl)-1-(2,2-diphenylacetyl)-pyrrolidine-2-carboxylic acid], 386 nM; under `O=C(O)[C@@H]1C[C@H](c2ncc(-c3ccccc3)o2)CN1C(=O)C(c1ccccc1)c1ccccc1` [Compound 56], 315 nM. With `O=C(O)[C@@H]1C[C@H](CS(=O)(=O)CCc2ccccc2)CN1C(=O)C(c1ccccc1)c1ccccc1` [Compound 58, (2S,S)-1-(2,2-diphenylacetyl)-4-((phenethylsulfonyl)methyl)pyrrolidine-2-carboxylic acid], the half-maximal inhibitory concentration (IC50) was 3050 nM. `CN(CCCc1ccccc1)[C@H]1C[C@@H](C(=O)O)N(C(=O)C(c2ccccc2)C2CCCCC2)C1` (stereo partly drawn) [Compound 62, (2S,4S)-1-(2-cyclohexyl-2-phenylacetyl)-4-(methyl(3-phenylpropyl)amino)pyrrolidine-2-carboxylic acid] came in with an IC50 of 540 nM. Turning to `O=C1NCC2(CCN([C@H]3C[C@@H](C(=O)O)N(C(=O)C(c4ccccc4)c4ccccc4)C3)CC2)C1c1ccccc1` (stereo partly drawn) [Compound 65, (2S,4S)-1-(2,2-diphenylacetyl)-4-(3-oxo-4-phenyl-2,8-diazaspiro[4,5]decan-8-yl)pyrrolidine-2-carboxylic acid], the IC50 worked out at 1600 nM. `O=C(O)[C@@H]1C[C@H](N2CCC3(CC2)C(=O)NC3c2ccccc2)CN1C(=O)C(c1ccccc1)c1ccccc1` (stereo partly drawn) [Compound 75, (2S,4S)-1-(2,2-diphenylacetyl)-4-(1-oxo-3-phenyl-2,7-diazaspiro[3,5]nonan-7-yl)pyrrolidine-2-carboxylic acid] had an IC50 of 3830 nM. With `O=C(O)[C@@H]1C[C@H](N2CCC[C@H]3CN(Cc4ccccc4)C[C@H]32)CN1C(=O)C(c1ccccc1)c1ccccc1` [Compound 84], the IC50 amounted to 75.8 nM. `O=C(O)[C@@H]1C[C@H](N2CCC[C@@H]3CN(Cc4ccccc4)C[C@@H]32)CN1C(=O)C(c1ccccc1)c1ccccc1` [Compound 85, (2S,4S)-4-((4aR,7aR)-6-benzoctahydro-1H-pyrrolo[3,4-b]-pyridin-1-yl)-1-(2,2-diphenylacetyl)pyrrolidine-2-carboxylic acid]: the IC50 was 103 nM.

`O=C(O)[C@@H]1C[C@H](N2CC[C@@H](c3ccccc3)C2)CN1C(=O)C(c1ccccc1)c1ccccc1` [Compound 86] displayed an IC50 of 817 nM. `O=C(O)[C@@H]1C[C@H](N2CC[C@H](c3ccccc3)C2)CN1C(=O)C(c1ccccc1)c1ccccc1` [Compound 87]: the IC50 amounted to 43.6 nM. This IC50 lies about 19-fold lower than the previous one. `CN(CCCCc1ccccc1)[C@H]1C[C@@H](C(=O)O)N(C(=O)C(c2ccccc2)c2ccccc2)C1` [Compound 90, (2S,4S)-1-(2,2-diphenylacetyl)-4-(methyl(4-phenylbutyl)-amino)pyrrolidine-2-carboxylic acid] showed an IC50 of 64.2 nM.

`CN(CCCc1ccc(F)cc1)[C@H]1C[C@@H](C(=O)O)N(C(=O)C(c2ccccc2)c2ccccc2)C1` [Compound 91, (2S,4S)-1-(2,2-diphenylacetyl)-4-((3-(4-fluorophenyl)-propyl)(methyl)amino)pyrrolidine-2-carboxylic acid] showed an IC50 of 12 nM. Molecule `COc1ccc(CCCN(C)[C@H]2C[C@@H](C(=O)O)N(C(=O)C(c3ccccc3)c3ccccc3)C2)cc1C` [Compound 92, (2S,4S)-1-(2,2-diphenylacetyl)-4-((3-(4-methoxy-3-methylphenyl)propyl)(methyl)amino)pyrrolidine-2-carboxylic acid] yielded an IC50 of 134 nM. `CN(CCCc1cccnc1)[C@H]1C[C@@H](C(=O)O)N(C(=O)C(c2ccccc2)c2ccccc2)C1` [Compound 93] returned an IC50 of 126 nM. In the case of `O=C(CCc1ccccc1)N[C@H]1C[C@@H](C(=O)O)N(C(=O)C(c2ccccc2)c2ccccc2)C1` [Compound 96, (2S,4S)-1-(2,2-diphenylacetyl)-4-(3-phenylpropanamido)-pyrrolidine-2-carboxylic acid] it was 2250 nM; in that of `CN(C(=O)CCc1ccccc1)[C@H]1C[C@@H](C(=O)O)N(C(=O)C(c2ccccc2)c2ccccc2)C1` [Compound 97, (2S,4S)-1-(2,2-diphenylacetyl)-4-(N-methyl-3-phenylpropanamido)pyrrolidine-2-carboxylic acid], 458 nM. As to `CS(=O)(=O)N(CCCc1ccccc1)[C@H]1C[C@@H](C(=O)O)N(C(=O)C(c2ccccc2)c2ccccc2)C1` [Compound 99, (2S,4S)-1-(2,2-diphenylacetyl)-4-(N-(3-phenylpropyl)-methylsulfonamido)pyrrolidine-2-carboxylic acid], the IC50 came to 536 nM.
